Counter-ions that a name gives are not always drawn.
These compounds were tested against USP7 (Homo sapiens, UniProt Q93009) (assay: biochemical). Settings: read-out: % Inhibition at 50 μM.
Sequence of USP7 (Q93009 whole entry): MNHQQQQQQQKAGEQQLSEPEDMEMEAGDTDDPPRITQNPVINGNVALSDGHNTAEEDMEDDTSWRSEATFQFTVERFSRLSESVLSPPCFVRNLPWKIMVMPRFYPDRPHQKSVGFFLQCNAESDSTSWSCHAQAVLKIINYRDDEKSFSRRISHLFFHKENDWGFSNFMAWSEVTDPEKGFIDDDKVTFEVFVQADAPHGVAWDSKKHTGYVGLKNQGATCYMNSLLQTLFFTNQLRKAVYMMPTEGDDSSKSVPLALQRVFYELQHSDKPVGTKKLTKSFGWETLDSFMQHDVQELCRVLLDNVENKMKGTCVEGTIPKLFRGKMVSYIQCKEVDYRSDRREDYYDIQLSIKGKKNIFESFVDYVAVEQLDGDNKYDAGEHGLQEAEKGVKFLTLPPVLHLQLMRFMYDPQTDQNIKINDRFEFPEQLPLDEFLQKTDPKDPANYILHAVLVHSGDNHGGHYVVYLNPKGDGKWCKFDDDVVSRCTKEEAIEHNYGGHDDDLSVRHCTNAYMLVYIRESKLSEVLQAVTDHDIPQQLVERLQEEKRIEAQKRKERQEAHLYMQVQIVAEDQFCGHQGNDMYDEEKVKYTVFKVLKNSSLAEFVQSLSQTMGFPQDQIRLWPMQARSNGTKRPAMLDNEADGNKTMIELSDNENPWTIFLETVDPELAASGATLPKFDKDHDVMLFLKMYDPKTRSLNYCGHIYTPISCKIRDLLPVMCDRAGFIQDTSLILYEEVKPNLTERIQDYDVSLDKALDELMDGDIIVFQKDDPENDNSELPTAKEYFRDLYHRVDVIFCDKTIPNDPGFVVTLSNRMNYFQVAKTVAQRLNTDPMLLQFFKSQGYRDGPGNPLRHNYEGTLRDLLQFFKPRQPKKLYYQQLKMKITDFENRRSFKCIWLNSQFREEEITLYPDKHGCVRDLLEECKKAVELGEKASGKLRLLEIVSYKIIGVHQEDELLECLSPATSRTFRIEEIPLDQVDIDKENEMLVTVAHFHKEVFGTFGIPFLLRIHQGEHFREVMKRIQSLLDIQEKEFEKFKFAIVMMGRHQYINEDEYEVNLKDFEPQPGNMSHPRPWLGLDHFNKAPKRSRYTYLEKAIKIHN
Parameters: Ub-AMC hydrolysis by recombinant USP7 (20 nM), 30 min pre-incubation, fluorescence read-out
`CN1CCN2c3ccccc3Cc3ccccc3C2C1` (centres unmarked) [Mianserin hcl] showed an inhibition at 50 µM of 21.3%. `CC1=C(/C=C/C(C)=C/C=C/C(C)=C/C(=O)O)C(C)(C)CCC1` [Retinoic acid] was tested, and the inhibition at 50 µM was under 5%. For `CSc1ccc2c(c1)N(CCC1CCCCN1C)c1ccccc1S2` (centres unmarked) [Thioridazine HCl], the inhibition at 50 µM was under 5%. In the case of `CCCCc1oc2ccccc2c1C(=O)c1cc(I)c(OCCN(CC)CC)c(I)c1` [Amiodarone], the inhibition at 50 µM is reported as under 5%. With `C=C(C)[C@@H]1CC[C@]2(C(=O)O)CC[C@]3(C)[C@H](CC[C@@H]4[C@@]5(C)CC[C@H](O)C(C)(C)[C@@H]5CC[C@]43C)[C@@H]12` [Betulinic acid] the inhibition at 50 µM was 25.8%. For `CN(C)CCC[C@@]1(c2ccc(F)cc2)OCc2cc(C#N)ccc21` [Escitalopram], the inhibition at 50 µM was under 5%. With `C[C@H]1[C@H](OC(=O)CCC(=O)O)O[C@@H]2O[C@@]3(C)CC[C@H]4[C@H](C)CC[C@@H]1[C@@]24OO3` [Artesunate] the inhibition at 50 µM was under 5%. Work on `O=C(c1ccc(OCCN2CCCCC2)cc1)c1c(-c2ccc(O)cc2)sc2cc(O)ccc12` [Raloxifene HCl] yielded an inhibition at 50 µM of under 5%. Compound `CC(C)NCC(O)c1ccc(NS(C)(=O)=O)cc1` (centres unmarked) [Sotalol HCl] has an inhibition at 50 µM of under 5%. With `C[C@@H](O[C@H]1OCCN(Cc2n[nH]c(=O)[nH]2)[C@H]1c1ccc(F)cc1)c1cc(C(F)(F)F)cc(C(F)(F)F)c1` [Aprepitant] the inhibition at 50 µM was under 5%. With `Cc1nc2c([nH]1)c(=O)n(C)c(=O)n2Cc1ccco1` [Furafylline] the inhibition at 50 µM was under 5%. Work on `CC(C)c1cccc(C(C)C)c1O` [Propofol] yielded an inhibition at 50 µM of under 5%. `CN(C)C(=O)Oc1cccc([N+](C)(C)C)c1` [Neostigmine Br] was tested, and the inhibition at 50 µM was under 5%. For `C[C@H]1c2cccc(O)c2C(=O)C2=C(O)[C@]3(O)C(=O)C(C(N)=O)=C(O)[C@@H](N(C)C)[C@@H]3[C@@H](O)[C@@H]21` [Doxycycline HCl], the inhibition at 50 µM was under 5%. `O=C(CCCN1CCC2(CC1)C(=O)NCN2c1ccccc1)c1ccc(F)cc1` [Spiperone] was tested, and the inhibition at 50 µM was under 5%. `CC(CN1c2ccccc2Sc2ccccc21)N(C)C` (centres unmarked) [Promethazine HCl] was tested, and the inhibition at 50 µM was 8.9%. `O=C1CC[C@@]2(O)[C@H]3Cc4ccc(O)c5c4[C@@]2(CCN3CC2CC2)[C@H]1O5` [Naltrexone HCl] gave an inhibition at 50 µM of under 5%. In the case of `c1ccc2c(c1)OCC(C1=NCCN1)O2` (centres unmarked) [Idazoxan], the inhibition at 50 µM is reported as under 5%. `COc1ccc2c(c1)[C@]13CCCC[C@@H]1[C@H](C2)N(C)CC3` [Dextromethorphan HBr] was tested, and the inhibition at 50 µM was 41.3%. In the case of `N[C@@H]1C[C@H]1c1ccccc1` (racemic) [Tranylcypromine], the inhibition at 50 µM is reported as under 5%. `CC(COc1ccccc1)N(CCCl)Cc1ccccc1` (centres unmarked) [Phenoxybenzamine HCl] gave an inhibition at 50 µM of under 5%. `C#C[C@]1(O)CC[C@H]2[C@@H]3CCC4=CC(=O)CC[C@@H]4[C@H]3CC[C@@]21CC` [Levonorgestrel] showed an inhibition at 50 µM of under 5%. Compound `CCC[C@@H]1C[C@@H](C(=O)N[C@@H]([C@H]2O[C@H](SC)[C@H](O)[C@@H](O)[C@H]2O)[C@@H](C)O)N(C)C1` [Lincomycin] has an inhibition at 50 µM of under 5%. `COC(=O)CCc1ccc(OCC(O)CNC(C)C)cc1` (centres unmarked) [Esmolol] gave an inhibition at 50 µM of under 5%. `CC(C)CC(N(C)C)C1(c2ccc(Cl)cc2)CCC1` (centres unmarked) [Sibutramine HCl] showed an inhibition at 50 µM of under 5%. In the case of `CC(C)[N+]1(C)C2CCC1CC(OC(=O)C(CO)c1ccccc1)C2` (centres unmarked) [Ipratropium Br], the inhibition at 50 µM is reported as under 5%. `CC(=O)O[C@]1(C(C)=O)CC[C@H]2[C@@H]3C=C(C)C4=CC(=O)CC[C@]4(C)[C@H]3CC[C@@]21C` [Megestrol acetate] was tested, and the inhibition at 50 µM was under 5%. `CN1CCC(=C2c3ccccc3C=Cc3ccccc32)CC1` [Cyproheptadine] was tested, and the inhibition at 50 µM was under 5%. In the case of `C[C@@H]1C(=O)O[C@H]2C[C@@]34[C@H]5C[C@@H](C(C)(C)C)[C@]36[C@@H](OC(=O)[C@@H]6O)O[C@@]4(C(=O)O5)[C@]21O` [Ginkgolide a], the inhibition at 50 µM is reported as under 5%. Compound `COc1ncnc(NS(=O)(=O)c2ccc(N)cc2)c1OC` [Sulfadoxine] has an inhibition at 50 µM of under 5%. For `O=C(O)COCCN1CCN(C(c2ccccc2)c2ccc(Cl)cc2)CC1` (centres unmarked) [Cetirizine 2HCl], the inhibition at 50 µM was under 5%. For `Clc1ccc(Nc2nnc(Cc3ccncc3)c3ccccc23)cc1` [Vatalanib], the inhibition at 50 µM was under 5%. In the case of `CO[C@H]1/C=C/O[C@@]2(C)Oc3c(C)c(O)c4c(O)c(c(/C=N/N5CCN(C)CC5)c(O)c4c3C2=O)NC(=O)/C(C)=C\C=C\[C@H](C)[C@H](O)[C@@H](C)[C@@H](O)[C@@H](C)[C@H](OC(C)=O)[C@@H]1C` [Rifampicin], the inhibition at 50 µM is reported as under 5%. `NC[C@H](O)c1ccc(O)c(O)c1` [Norepinephrine-(+)-tartrate l (-)] showed an inhibition at 50 µM of under 5%. Compound `O=C(NCCNCC(O)COc1ccc(O)cc1)N1CCOCC1` (centres unmarked) [Xamoterol hemifumarate] has an inhibition at 50 µM of under 5%. In the case of `C[C@]12CC[C@@H]3c4ccc(O)cc4C[C@@H](CCCCCCCCC[S+]([O-])CCCC(F)(F)C(F)(F)F)[C@H]3[C@@H]1CC[C@@H]2O` (some centres unmarked) [Fulvestrant], the inhibition at 50 µM is reported as under 5%. In the case of `O=C1CN2Cc3c(ccc(Cl)c3Cl)N=C2N1` [Anagrelide], the inhibition at 50 µM is reported as 8.4%. `Cc1oncc1C(=O)Nc1ccc(C(F)(F)F)cc1` [Leflunomide] showed an inhibition at 50 µM of under 5%. Compound `Cc1ccc(/C(=C\CN2CCCC2)c2ccccn2)cc1` [Trans-triprolidine HCl] has an inhibition at 50 µM of under 5%. Work on `CN1C(C(=O)Nc2ccccn2)=C(O)c2ccccc2S1(=O)=O` [Piroxicam] yielded an inhibition at 50 µM of under 5%. `CCCCc1ncc(/C=C(\Cc2cccs2)C(=O)O)n1Cc1ccc(C(=O)O)cc1` [Eprosartan] gave an inhibition at 50 µM of 6.2%. With `C[C@](N)(Cc1ccc(O)c(O)c1)C(=O)O` [Methyldopa] the inhibition at 50 µM was under 5%. Compound `CNC1(C)C2CCC(C2)C1(C)C` (centres unmarked) [Mecamylamine HCl] has an inhibition at 50 µM of under 5%. With `CNC[C@H](O)c1ccc(O)c(O)c1` [Epinephrine-(+)-tartrate l (-)] the inhibition at 50 µM was under 5%. Work on `C=C1C[C@H]2[C@@H]3C=C(C)C4=CC(=O)CC[C@]4(C)[C@H]3CC[C@]2(C)[C@@]1(OC(C)=O)C(C)=O` [Melengestrol acetate] yielded an inhibition at 50 µM of under 5%. In the case of `C#C[C@]1(O)CC[C@H]2[C@@H]3CCC4=Cc5oncc5C[C@]4(C)[C@H]3CC[C@@]21C` [Danazol], the inhibition at 50 µM is reported as under 5%. In the case of `Nc1ccn([C@@H]2O[C@H](CO)[C@@H](O)C2(F)F)c(=O)n1` [Gemcitabine HCl], the inhibition at 50 µM is reported as 21.5%. Compound `CCCCC[C@H](O)/C=C/[C@@H]1[C@@H](C/C=C\CCCC(=O)O)[C@@H](O)C[C@H]1O` [Dinoprost] has an inhibition at 50 µM of under 5%. `CCOC(=O)c1cnc2c(cnn2CC)c1NN=C(C)C` [Etazolate] gave an inhibition at 50 µM of under 5%. Work on `COc1cc2nc(N3CCN(C(=O)C4COc5ccccc5O4)CC3)nc(N)c2cc1OC` (centres unmarked) [Doxazosin mesylate] yielded an inhibition at 50 µM of under 5%. In the case of `CN(CCOc1ccc(CC2SC(=O)NC2=O)cc1)c1ccccn1` (centres unmarked) [Rosiglitazone maleate], the inhibition at 50 µM is reported as under 5%. Compound `CN/C(=N\c1ccc(C2=NNC(=O)CC2C)cc1)NC#N` (centres unmarked) [Siguazodan] has an inhibition at 50 µM of under 5%. `CCC(C)(C)c1ccc(CC(C)CN2C[C@@H](C)O[C@@H](C)C2)cc1` (some centres unmarked) [Amorolfine] showed an inhibition at 50 µM of under 5%. `C=C1C[C@@H]2[C@H](CC[C@]3(C)C(=O)CC[C@@H]23)[C@@]2(C)C=CC(=O)C=C12` [Exemestane] was tested, and the inhibition at 50 µM was under 5%. `N[C@@H](Cc1ccc(O)c(O)c1)C(=O)O` [Levodopa] gave an inhibition at 50 µM of under 5%. Work on `C[C@H]1[C@H](C)CC[C@]2(C(=O)O)CC[C@]3(C)C(=CC[C@@H]4[C@@]5(C)C[C@@H](O)[C@H](O)[C@@](C)(CO)[C@@H]5[C@H](O)C[C@]43C)[C@H]12` [Madecassic acid] yielded an inhibition at 50 µM of under 5%. With `CCOC(=O)C1=C(C)NC(C)=C(C(=O)OC)C1c1cccc(Cl)c1Cl` (centres unmarked) [Felodipine] the inhibition at 50 µM was 7.9%. In the case of `CN(C)c1ccc(O)c2c1C[C@H]1C[C@H]3[C@H](N(C)C)C(O)=C(C(N)=O)C(=O)[C@@]3(O)C(O)=C1C2=O` [Minocycline HCl], the inhibition at 50 µM is reported as under 5%. With `CCCCCCCCCCCCCCCCOP(=O)([O-])OCC[N+](C)(C)C` [Miltefosine] the inhibition at 50 µM was 6.5%. With `CCN(CC)C(=S)SSC(=S)N(CC)CC` [Disulfiram] the inhibition at 50 µM was under 5%. `C[C@@H]1CN(c2c(F)c(N)c3c(=O)c(C(=O)O)cn(C4CC4)c3c2F)C[C@H](C)N1` [Sparfloxacin] showed an inhibition at 50 µM of under 5%. In the case of `CC[C@@]1(O)C(=O)OCc2c1cc1n(c2=O)Cc2cc3ccccc3nc2-1` [Camptothecin], the inhibition at 50 µM is reported as under 5%. `COC(=O)c1ccc(O)c2nc3c(C=O)c(O)cc(O)c3nc12` [Lomofungin] showed an inhibition at 50 µM of under 5%. `O=C1c2c(O)ccc(O)c2C(=O)c2c(NCCNCCO)ccc(NCCNCCO)c21` [Mitoxantrone 2HCl] gave an inhibition at 50 µM of under 5%. For `CC(CCc1ccc(O)cc1)NCCc1ccc(O)c(O)c1` (centres unmarked) [Dobutamine HCl], the inhibition at 50 µM was under 5%. `CCOC(=O)[C@H](CCc1ccccc1)N[C@@H](C)C(=O)N1Cc2ccccc2C[C@H]1C(=O)O` [Quinapril HCl] gave an inhibition at 50 µM of under 5%. `COC1=C(OC)C(=O)C(CCCCCCCCCCO)=C(C)C1=O` [Idebenone] gave an inhibition at 50 µM of under 5%. `Nc1cc(-c2ccncc2)c[nH]c1=O` [Amrinone] showed an inhibition at 50 µM of under 5%. With `CCCCCN(CCCCC)C(=O)C(CCC(=O)O)NC(=O)c1ccc(Cl)c(Cl)c1` (centres unmarked) [Lorglumide] the inhibition at 50 µM was under 5%. With `COC(=O)C1=C(C)NC(C)=C(C(=O)OCCN(C)Cc2ccccc2)C1c1cccc([N+](=O)[O-])c1` (centres unmarked) [Nicardipine] the inhibition at 50 µM was under 5%. For `COc1cc([C@@H]2c3cc4c(cc3[C@@H](O[C@@H]3O[C@@H]5CO[C@@H](C)O[C@H]5[C@H](O)[C@H]3O)[C@H]3COC(=O)[C@H]23)OCO4)cc(OC)c1O` [Etoposide], the inhibition at 50 µM was under 5%. Work on `CCN(CC)CC(=O)Nc1c(C)cccc1C` [Lidocaine] yielded an inhibition at 50 µM of under 5%. Work on `CCC[C@@H]1C[C@@H](C(=O)N[C@@H]([C@H]2O[C@H](SC)[C@H](O)[C@@H](O)[C@H]2O)[C@H](C)Cl)N(C)C1` [Clindamycin HCl] yielded an inhibition at 50 µM of under 5%. `CC[C@@H]1C(=O)OC[C@@H]1Cc1cncn1C` [Pilocarpine HCl] was tested, and the inhibition at 50 µM was under 5%. For `NC(=O)OCC(COC(N)=O)c1ccccc1` [Felbamate], the inhibition at 50 µM was under 5%. With `Cc1ccc(C(=O)c2cc(O)c(O)c([N+](=O)[O-])c2)cc1` [Tolcapone] the inhibition at 50 µM was 28.6%. `CS(=O)(=O)c1ccc([C@H](O)[C@@H](COC(=O)CN)NC(=O)C(Cl)Cl)cc1` [Thiamphenicol glycinate] showed an inhibition at 50 µM of under 5%.
